Literature values, collected in PMC12676331 (ACS Omega, 2025).

Key:
G-protein = details: in vitro and in vivo; ref number not given
P23H rod opsin = details: ref number not given
rod opsin mutants = details: in vitro; ref number not given
[1] = tested on: T17M Rho mouse model of RP; details: ref number not given

Row | Compound | G-protein activation (G-protein) | maturation and membrane expression of P23H rod opsin (P23H rod opsin) | folding and membrane trafficking of rod opsin mutants (rod opsin mutants) | photoreceptor survival [1]
1 | 11-cis-6-membered-ring-retinal | can partially activate G-protein | – | – | –
2 | 11-cis-7-membered-ring-retinal | does not activate G-protein | improve the maturation and membrane expression of P23H rod opsin | – | –
3 | CC(=C/C(=O)O)/C=C/C=C(\C)C1C=C2C(C)(C)CCCC2(C)O1 (stereo not drawn) [13-cis-5,8-ERA, 8-epoxy-13-cis-retinoic acid] | – | – | promoted proper folding and membrane trafficking | –
4 | CC1=C(/C=C/C(=O)N2CCN(C(N)=O)CC2)C(C)(C)CCC1 [SRD005825] | – | – | promoted proper folding and membrane trafficking | improved photoreceptor survival
